Source: ChEMBL document CHEMBL5303304, “EUbOPEN Chemogenomics Library - IncuCyte” (2023)

What was measured:
Type in all cases: toxicity, cell-based
HEK-293T = test: Incucyte cell viability with HEK293T; details: human, 10 µM, compound concentration 10 uM
Fibroblast = test: Incucyte cell viability with human fibroblast; details: 10 µM, compound concentration 10 uM
U2OS = test: Incucyte cell viability with U2OS; details: human, 10 µM, compound concentration 10 uM
Note: unitless GR value; below 1 slowed growth and below 0 cell loss.

| Structure (SMILES) | Growth Rate (HEK-293T; 0 h, replicate number 1) | Growth Rate (Fibroblast; 0 h, replicate number 1) | Growth Rate (Fibroblast; 12 h, replicate number 2) | Growth Rate (Fibroblast; 18 h, replicate number 1) | Growth Rate (Fibroblast; 24 h, replicate number 2) | Growth Rate (U2OS; 0 h, replicate number 1) | Growth Rate (U2OS; 0 h, replicate number 2) | Growth Rate (U2OS; 6 h, replicate number 1) | Growth Rate (U2OS; 24 h, replicate number 1) | Growth Rate (HEK-293T; 0 h, replicate number 2) | Growth Rate (HEK-293T; 12 h, replicate number 1) | Growth Rate (HEK-293T; 12 h, replicate number 2) | Growth Rate (HEK-293T; 18 h, replicate number 1) | Growth Rate (HEK-293T; 18 h, replicate number 2) | Growth Rate (HEK-293T; 24 h, replicate number 1) | Growth Rate (HEK-293T; 24 h, replicate number 2) | Growth Rate (U2OS; 12 h, replicate number 2) | Growth Rate (U2OS; 18 h, replicate number 1) | Growth Rate (U2OS; 18 h, replicate number 2) | Growth Rate (U2OS; 24 h, replicate number 2) | also measured |
| --- | --- | --- | --- | --- | --- | --- | --- | --- | --- | --- | --- | --- | --- | --- | --- | --- | --- | --- | --- | --- | --- |
| CCOC(=O)c1c(/C(C#N)=C\N)c2ccc(Cl)c(Cl)c2n1C | 0.22 | 0.55 | 0.88 | 0.7 | 0.9 | -0.98 | 0.82 | 0.92 | 0.94 |  |  |  |  |  |  |  |  |  |  |  | Growth Rate (Fibroblast; 6 h, replicate number 1): -0.96; Growth Rate (Fibroblast; 24 h, replicate number 1): 0.75; Growth Rate (U2OS; 12 h, replicate number 1): 0.97 |
| CN[C@@H](C)C(=O)N[C@H]1CCCC[C@H]2CC[C@@H](C(=O)N[C@@H](c3ccccc3)c3cn(CCCCc4ccc(CCCCn5cc([C@@H](NC(=O)[C@@H]6CC[C@@H]7CCCC[C@H](NC(=O)[C@H](C)NC)C(=O)N76)c6ccccc6)nn5)cc4)nn3)N2C1=O | 0.64 | 0.3 | 0.88 | 0.61 | 0.66 | -0.95 | -0.89 |  |  | 0.24 | 0.83 | 0.77 | 0.72 | 0.74 | 0.65 | 0.84 |  |  |  |  | Growth Rate (HEK-293T; 6 h, replicate number 2): 0.99; Growth Rate (Fibroblast; 6 h, replicate number 2): 0.06; Growth Rate (Fibroblast; 18 h, replicate number 2): 0.55 |
| O=C1NC(Nc2ccccc2)=N/C1=C\c1ccc2c(c1)OCO2 | 0.4 |  |  |  |  |  |  |  | 0.95 | 0.1 | 0.37 | 0.19 | 0.43 | 0.47 | 0.56 | 0.33 | 0.39 | 0.85 | 0.66 | 0.66 | Growth Rate (HEK-293T; 6 h, replicate number 1): 0.83; Growth Rate (HEK-293T; 6 h, replicate number 2): 0; Growth Rate (Fibroblast; 0 h, replicate number 2): -0.92; Growth Rate (Fibroblast; 6 h, replicate number 1): -0.96; Growth Rate (U2OS; 6 h, replicate number 2): 0.78 |
| COc1ccc(-n2c(C)c([N+](=O)[O-])c3ccc(O)cc32)cc1 | 0.26 |  |  | -0.35 |  |  |  |  | 0.91 | -0.46 |  |  |  |  |  |  | 0.65 | 0.88 | 0.61 | 0.77 | Growth Rate (Fibroblast; 0 h, replicate number 2): 0.13 |
| CCc1cc2c(cc1-c1cccc(S(=O)(=O)F)c1)C(C)(C)c1[nH]c3cc(C#N)ccc3c1C2=O | 0.33 | -0.25 |  | -0.55 | 0.9 | -1 | -0.59 | 0.58 | 0.66 | 0.37 | 0.48 | 0.78 | 0.83 | 0.95 | 0.69 |  | 0.66 | 0.76 |  | 0.77 | Growth Rate (HEK-293T; 6 h, replicate number 1): -0.16; Growth Rate (HEK-293T; 6 h, replicate number 2): -0.05; Growth Rate (Fibroblast; 6 h, replicate number 2): 0.75; Growth Rate (Fibroblast; 12 h, replicate number 1): -0.96; Growth Rate (Fibroblast; 18 h, replicate number 2): 0.89; Growth Rate (Fibroblast; 24 h, replicate number 1): 0.61; Growth Rate (U2OS; 12 h, replicate number 1): 0.52 |
| COc1cc(C(=O)NCCOCCOCCOCC(=O)N[C@H](C(=O)N2C[C@@H](O)C[C@H]2C(=O)NCc2ccc(-c3scnc3C)cc2)C(C)(C)C)ccc1Nc1ncc(C(F)(F)F)c(Oc2cccc3c2C(=O)CC3)n1 | -1 |  |  |  |  |  | 0.1 |  |  |  |  |  |  |  |  |  |  |  |  | 0.94 | Growth Rate (Fibroblast; 0 h, replicate number 2): 0.86 |
| O=C1c2c(Br)c(Br)c(Br)c(Br)c2C(=O)N1c1ncc[nH]1 | 0.6 | 0.94 | 0.46 | 0.49 |  | 0.58 |  | 0.7 |  | 0.63 |  | 0.57 |  | 0.74 |  | 0.78 | 0.88 |  | 0.8 | 0.85 | Growth Rate (HEK-293T; 6 h, replicate number 2): 0.37; Growth Rate (Fibroblast; 6 h, replicate number 2): -0.34; Growth Rate (Fibroblast; 12 h, replicate number 1): -0.93; Growth Rate (Fibroblast; 18 h, replicate number 2): 1; Growth Rate (U2OS; 6 h, replicate number 2): 0.25 |
| O=C(O)C(F)(F)F.O=C1NC(=O)/C(=C/c2c[nH]c(=O)c(-c3ccc(N4CCNCC4)nc3)c2)S1 | 0.51 | 0.18 | 0.62 | -0.06 | 0.73 |  | -0.63 | 0.54 | 0.96 | 0.87 |  | 0.93 |  | 0.96 |  | 0.95 |  | 0.97 |  |  | Growth Rate (Fibroblast; 6 h, replicate number 2): -0.44; Growth Rate (Fibroblast; 12 h, replicate number 1): -0.78; Growth Rate (Fibroblast; 18 h, replicate number 2): 0.69; Growth Rate (Fibroblast; 24 h, replicate number 1): 0.69; Growth Rate (U2OS; 12 h, replicate number 1): 0.92 |
| O=C1NC(=Nc2c(Cl)cccc2Cl)S/C1=C\c1ccc2nccnc2c1 | 0.08 | 0.49 | 0.96 |  |  | 0.01 |  | 0.4 | 0.8 | 0.44 | 0.48 | 0.26 | 0.44 | 0.35 | 0.52 | 0.45 | 0.38 | 0.81 | 0.64 | 0.75 | Growth Rate (HEK-293T; 6 h, replicate number 1): 0.02; Growth Rate (Fibroblast; 6 h, replicate number 2): 0.92; Growth Rate (U2OS; 6 h, replicate number 2): 0.31 |
| O=C(Nc1cc(-c2cn[nH]c2)ccc1N1CCOCC1)c1ccc(-c2ccc3ncccc3c2)o1 | 0.85 | -0.23 | 0.42 |  | 0.77 |  | -0.65 |  | 0.44 | 0.49 | -0.07 | -0.19 | 0.02 | 0.04 | -0.01 | 0.06 | 0.75 | 0.39 |  | 0.4 | Growth Rate (HEK-293T; 6 h, replicate number 1): -0.44; Growth Rate (HEK-293T; 6 h, replicate number 2): -0.29; Growth Rate (Fibroblast; 6 h, replicate number 1): -1; Growth Rate (Fibroblast; 18 h, replicate number 2): 0.64 |
| O=C1NC(NC23CC4CC(CC(C4)C2)C3)=N/C1=C\c1ccc2ncsc2c1 | -0.45 | 0.57 |  |  |  | 0.86 | -0.34 |  | 0.82 | -0.26 | 0.28 | 0.34 | 0.06 | 0.09 | 0.08 | 0.05 |  |  | 0.87 | 0.52 | Growth Rate (Fibroblast; 0 h, replicate number 2): 0.76; Growth Rate (Fibroblast; 6 h, replicate number 1): -1 |
| Cc1ncsc1-c1ccc(CNC(=O)[C@@H]2C[C@H](O)CN2C(=O)[C@@H](NC(=O)C2(F)CC2)C(C)(C)C)c(OCCOc2ccc(CN3CCN(c4cc(-c5ccccc5O)nnc4N)CC3)cc2)c1 | -0.03 |  |  |  |  |  |  |  | 0.98 | -0.99 |  |  |  |  |  |  |  |  |  |  | Growth Rate (Fibroblast; 0 h, replicate number 2): 0.56 |
| O=C(Nc1ccccc1C(=O)O)c1cc(S(=O)(=O)c2ccccc2)ccc1Cl | -0.5 |  |  |  |  |  | 0.97 |  | 0.79 | -0.73 | 0.52 | 0.88 | 0.3 | 0.41 | 0.24 | 0.34 | 0.55 | 0.96 | 0.65 | 0.8 | Growth Rate (HEK-293T; 6 h, replicate number 1): 0.7; Growth Rate (Fibroblast; 0 h, replicate number 2): -0.73 |
| CC(C)(C)NC(=O)c1cncn1C1CCN(c2ccc(-c3nnc(C(F)(F)F)o3)cn2)CC1 | -0.46 | -1 | -0.49 | -0.2 | -0.11 | -0.02 | 0.52 | -0.4 | 0.32 | -0.33 | 0.06 | -0.22 | 0.18 | -0.09 | 0.15 | 0.08 | 0.34 | 0.27 | 0.46 | 0.6 | Growth Rate (HEK-293T; 6 h, replicate number 1): 0.35; Growth Rate (HEK-293T; 6 h, replicate number 2): -0.15; Growth Rate (Fibroblast; 6 h, replicate number 1): 0.1; Growth Rate (Fibroblast; 6 h, replicate number 2): -0.99; Growth Rate (Fibroblast; 12 h, replicate number 1): -0.09; Growth Rate (Fibroblast; 18 h, replicate number 2): -0.39; Growth Rate (Fibroblast; 24 h, replicate number 1): -0.13; Growth Rate (U2OS; 6 h, replicate number 2): 0; Growth Rate (U2OS; 12 h, replicate number 1): -0.09 |
| CC(=O)c1ccc2c(c1)/C(=C(/NC1CCN(C)CC1)c1ccc3c(c1)OCO3)C(=O)N2 | -0.53 |  | 0.74 | 0.78 | 0.37 |  |  | 0.57 | 0.21 | 0.02 | -0.7 | -0.83 | -0.5 | -0.63 | -0.37 | -0.45 | 0.33 | 0.32 | 0.13 | 0.13 | Growth Rate (HEK-293T; 6 h, replicate number 1): -0.84; Growth Rate (HEK-293T; 6 h, replicate number 2): -0.95; Growth Rate (Fibroblast; 18 h, replicate number 2): 0.48; Growth Rate (Fibroblast; 24 h, replicate number 1): 0.63; Growth Rate (U2OS; 12 h, replicate number 1): 0.52 |
